The subject of one series is EAAT2. Briefly: Immunofluorescent staining of induced EAAT2 protein in PA-EAAT2 cells. The class given is cell-based, human. As to conditions: PA-EAAT2 cells (FIG. 6E). The procedure:
Characterization and efficacy studies of a compound, Compound 212320 (FIG. 6A) is shown. […] In the absence of serum, PA-EAAT2 cells express low amounts of EAAT2 protein, although the recombinant EAAT2 mRNA are expressed (translational silencing); however, EAAT2 protein levels are increased when an activator is added to the culture (translational activation). This cell line was used for high-throughput screening to identify EAAT2 translational activators. To prioritize candidate compounds, we initially evaluated activation of EAAT2 protein in PA-EAAT2 cells. Promising compounds were further evaluated in primary dissociated neuron and astrocyte mixed cultures and then in mice. FIG. 6 presents the characterization of Compound 212320 in PA-EAAT2 cells. Compound 212320 increased EAAT2 protein levels in a dose—(FIG. 6B) and time—(FIG. 6C) dependent manner. Importantly, the induction occurred in a short amount of time (within 1-2 hr) and was sustained even up to 72 hr (data not show). Additionally, induction occurred at low nanomolar concentrations. […] (FIG. 6D).

For a further series, the target named is T1, CYP1A2 (Homo sapiens, UniProt P05177).
T1 sequence (P05177 1-516): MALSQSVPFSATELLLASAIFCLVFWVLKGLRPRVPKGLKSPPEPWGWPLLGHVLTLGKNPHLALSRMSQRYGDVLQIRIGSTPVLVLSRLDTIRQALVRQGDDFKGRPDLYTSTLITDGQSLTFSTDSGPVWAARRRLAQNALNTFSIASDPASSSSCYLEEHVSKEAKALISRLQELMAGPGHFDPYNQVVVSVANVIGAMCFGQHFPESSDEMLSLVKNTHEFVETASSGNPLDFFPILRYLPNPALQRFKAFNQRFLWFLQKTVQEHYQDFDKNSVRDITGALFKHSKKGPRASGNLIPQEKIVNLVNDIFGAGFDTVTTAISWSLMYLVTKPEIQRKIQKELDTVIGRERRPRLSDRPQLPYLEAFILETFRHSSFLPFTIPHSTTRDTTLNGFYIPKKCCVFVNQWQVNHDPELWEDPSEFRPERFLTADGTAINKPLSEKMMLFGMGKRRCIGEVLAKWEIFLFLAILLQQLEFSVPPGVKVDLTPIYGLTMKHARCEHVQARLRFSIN
Briefly: In vitro side effect profiling: CYP1A2. The class given is in vitro ADME. As to conditions: duplicate, read-out: inhibition on cytochrome p450 CYP1A2. As for the experimental part:
To assess Compound 212320's biological activity and selectivity, we performed an in vitro side effect profiling study. Seventy-one targets were tested at 10 μM in duplicate. These targets include neurotransmitter related receptors (30), steroids (2), ion channels (6), second messenger (1), prostaglandins (3), growth factors/hormones (4), brain/gut peptides (13), enzymes (5) and cytochrome p450 (7). […] Additionally, we performed a protein kinase profiling study. Compound 212320 was tested at 1 and 10 μM against 288 kinases. […] These studies indicate that Compound 212320 has high specificity and low side-effects/toxicity potential.

Each structure is given as a SMILES string.

As a reminder, the inhibition is the change of the read-out against control, counted positive when it falls. For the molecule `Cc1ccccc1CSc1ccc(-c2ccccn2)nn1` [Compound 7-4], the “Localization of induced EAAT2 protein” value in the series on EAAT2 is listed as “properly localized to the plasma membrane”. Also, the inhibition at 10 µM on CYP1A2 amounted to 69%.

The record behind these values is patent US9447075B2, “Pyridazine derivatives as EAAT2 activators” (The Brigham and Women's Hospital, Inc., priority 2011, dated 2016).
